Measured values as given in PubChem BioAssay (NCI).
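A five-concentration, 48-hour dose response in 96-well plates underlies each endpoint, interpolated linearly between surrounding concentrations. GI50 marks 50% less growth. TGI marks complete inhibition of growth.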

How the values were obtained:
Test in all cases: DTP human tumour cell line panel, 48 h
SN12C renal = test system: SN12C renal
UACC-257 melanoma = test system: UACC-257 melanoma
NCI-H23 lung = test system: NCI-H23 lung
CAKI-1 renal = test system: CAKI-1 renal
SF-295 CNS = test system: SF-295 CNS
OVCAR-5 ovarian = test system: OVCAR-5 ovarian
IGROV1 ovarian = test system: IGROV1 ovarian
SNB-75 CNS = test system: SNB-75 CNS
NCI-H460 lung = test system: NCI-H460 lung
SNB-19 CNS = test system: SNB-19 CNS

Compound	TGI (SN12C renal)	TGI (UACC-257 melanoma)	TGI (NCI-H23 lung)	TGI (CAKI-1 renal)	TGI (SF-295 CNS)	TGI (OVCAR-5 ovarian)	TGI (IGROV1 ovarian)	TGI (SNB-75 CNS)	TGI (NCI-H460 lung)	TGI (SNB-19 CNS)	GI50 (SN12C renal)	GI50 (UACC-257 melanoma)	GI50 (NCI-H23 lung)	GI50 (CAKI-1 renal)	GI50 (SF-295 CNS)	GI50 (OVCAR-5 ovarian)	GI50 (IGROV1 ovarian)	GI50 (SNB-75 CNS)	GI50 (NCI-H460 lung)	GI50 (SNB-19 CNS)
C(=NCCN=Cc1cccc2ccccc12)c1cccc2ccccc12	> 100 µM	> 100 µM	> 100 µM	> 100 µM	> 100 µM	> 100 µM	> 100 µM	> 100 µM	> 100 µM	> 100 µM										
O=C(O)CSc1nnc2c3ccccc3c3ccccc3c2n1	> 100 µM	> 100 µM	> 100 µM	> 100 µM	> 100 µM	> 100 µM	> 100 µM	> 100 µM	> 100 µM	> 100 µM										
CCCCCCC(=O)CC(=O)C(=O)Nc1ccccc1C	> 100 µM	> 100 µM	> 100 µM	> 100 µM	> 100 µM	> 100 µM	> 100 µM	> 100 µM	> 81.2 µM	> 100 µM										
Nc1ncnc2c1ncn2COC/C=C/I	> 100 µM	> 100 µM	> 100 µM	> 100 µM	> 100 µM	> 100 µM	> 100 µM	> 100 µM	> 100 µM	> 100 µM										
CCCCCCCCCCCCCCCC(N)c1ccccc1 (stereo not drawn)	3.51 µM	3.4 µM	3.35 µM	2.96 µM	3.35 µM	3.1 µM	3.44 µM	2.88 µM	3.55 µM		1800 nM	1780 nM	1740 nM	1530 nM	1730 nM	1490 nM	1780 nM	1270 nM	1910 nM	
COc1cc2c3c(n(CCCN4CCN(CCO)CC4)c(=O)c2cc1OC)-c1cc2c(cc1C3=O)OCO2	> 100 µM	> 81.4 µM	16.5 µM	42.2 µM	25.2 µM	40.9 µM	> 50.9 µM	31.7 µM	18.4 µM	> 65.7 µM	> 100000 nM	30600 nM	4770 nM	6530 nM	1550 nM	19900 nM	> 34200 nM	9870 nM	972 nM	14300 nM
O=S1Cc2ccccc2CSS1 (stereo not drawn)	29.4 µM	29.1 µM	28.1 µM	35.8 µM	37.9 µM	37.4 µM	> 100 µM	43.4 µM	32.9 µM	> 100 µM										
NCCNc1ncnc2ccc(Cl)cc12	> 100 µM	> 100 µM	> 100 µM	> 100 µM	> 100 µM	> 100 µM	> 100 µM	> 100 µM	> 100 µM	> 100 µM										
Nc1ncnc2c1ncn2C1OC(C(=O)OCCO)C(O)C1O (stereo not drawn)	> 100 µM	> 100 µM	> 100 µM	> 100 µM	> 100 µM	> 100 µM	> 100 µM	> 100 µM	> 100 µM	> 100 µM										
CC1SC(c2cccc(Cl)c2)N(NC(=O)C(O)c2ccccc2)C1=O (stereo not drawn)	> 100 µM	> 100 µM	> 100 µM	> 100 µM	> 100 µM	> 100 µM	> 100 µM	> 100 µM	> 100 µM	> 100 µM	> 100000 nM	> 100000 nM	> 100000 nM	> 100000 nM	> 100000 nM	> 100000 nM	68700 nM	79100 nM	> 100000 nM	> 100000 nM
CC(=O)Nc1ccc(OCC(O)CO)cc1 (stereo not drawn)	> 100 µM	> 100 µM	> 100 µM	> 100 µM	> 100 µM	> 100 µM	> 100 µM	> 100 µM	> 100 µM	> 100 µM										
CN1C(=O)C(C)(C)Oc2c(-c3cn(C)c(=O)c4[nH]ccc34)cc(S(C)(=O)=O)cc21	> 100 µM	> 100 µM	18.7 µM	16.1 µM	> 100 µM	> 100 µM	> 100 µM	1.49 µM	> 100 µM	> 100 µM	2680 nM	865 nM	1710 nM	271 nM	2680 nM	1060 nM	890 nM	155 nM	2290 nM	1600 nM
CC1=C(C(=O)NCc2ccccc2)C(c2ccccc2O)C(C(=O)NCc2ccccc2)=C(C)N1	32.3 µM	> 31.6 µM	34.1 µM	44.3 µM	44.7 µM	38 µM	39 µM	> 71.3 µM	39.2 µM	42.4 µM										
CCOc1cc[n+](C(=C=[N-])C#N)cc1	> 100 µM	> 100 µM	> 100 µM	> 100 µM	> 100 µM	> 100 µM	> 100 µM	> 100 µM	> 100 µM	> 100 µM										
C[C@H](c1ccc(Cl)cc1[N+](=O)[O-])N1C(=O)c2cc(I)ccc2NC(=O)[C@H]1c1ccc(Cl)cc1	> 100 µM	> 100 µM	> 100 µM	> 100 µM	> 100 µM	> 100 µM	> 100 µM	> 100 µM	> 100 µM	> 100 µM	> 100000 nM	33900 nM	> 100000 nM	4200 nM	8180 nM	> 100000 nM	8210 nM	> 100000 nM	6610 nM	> 100000 nM
CC(=O)N1c2ccc(-c3ccc(C(=O)O)cc3)cc2[C@H](Nc2ccc(Cl)cc2)C[C@@H]1C	99 µM	21.5 µM	44.3 µM	> 100 µM	18.1 µM	> 46.6 µM	64.9 µM	> 100 µM	> 55.6 µM	> 100 µM	3890 nM	366 nM	918 nM	45.7 nM	477 nM	1450 nM	531 nM	< 16.5 nM	1610 nM	1060 nM
COc1cc[nH]c1/C=C1\C(=O)Nc2ccc([N+](=O)[O-])c(N3CC[C@@H](O)C3)c21	4 µM	1.64 µM	1.89 µM	1.63 µM	3.4 µM	3.97 µM	4.27 µM	0.989 µM	2.92 µM	5.68 µM	211 nM	474 nM	484 nM	369 nM	128 nM	258 nM	467 nM	93.1 nM	119 nM	495 nM
